# Article PMC8611673 (JACS Au, 2021)
# Test system: HeLa 654 cells
# Assay: EGFP assay with chemical endocytosis inhibitors
# Type: cell-based, human
# Details: higher concentrations of the inhibitor
row,SMILES,toxicity of the inhibitor to HeLa 654 cells
1,C=C1[C@@H](C)[C@H]2[C@H](Cc3ccccc3)NC(=O)[C@]23[C@H](OC(C)=O)/C=C/[C@@](C)(O)C(=O)[C@@H](C)C/C=C/[C@H]3[C@@H]1O [cytochalasin D],appeared to be toxic
2,COC[C@H]1OC(=O)c2coc3c2[C@@]1(C)C1=C(C3=O)[C@@H]2CCC(=O)[C@@]2(C)C[C@H]1OC(C)=O [wortmannin],appeared to be toxic
